Measurements from US11542263B2 (NeuroCycle Therapeutics, Inc., priority 2018, dated 2023).
Like-named read-outs stand apart in the source and are kept apart here.

Experiment: Solubility in aqueous buffers and simulated fluids, 24 h, HPLC
Assay type: physicochemical
Details: for solubility at 24 h: 22.5 °C, thermodynamic from solid, read-out: Measured Conc. (solubility); for solubility at 24 h / Measured Conc. (solubility): ~24 h
Description: About 2 mg of test article was added to a 1.5 mL vials which contained ˜1.0 mL of one medium listed in Table 7 and Table 8, which was then sealed. The mixtures were stirred at ˜20-25° C. for ˜24 hours. After that, the mixture was filtered by 0.45 μm filter membrane and then the supernatant was analyzed by HPLC.

For `CC(C)(O)c1cnn2c(-c3ccc(F)c(-c4c(F)cccc4C#N)c3)cnc2n1.O=P(O)(O)O` [Phosphate Polymorphic Form A, 2′,6-difluoro-5′-[3-(1-hydroxy-1-methylethyl)-imidazo[1,2-b][1,2,4]triazin-7-yl]biphenyl-2-carbonitrile], the solubility at 24 h (aqueous buffer, pH 3.0 citrate buffer (100 mM), initial pH 3.05, LOQ: 0.1 μg/mL) was 0.16 µg/mL, the solubility at 24 h (pH 1.8, simulated gastric fluid, SGF, initial pH 1.80, ~20-25° C.) was 3.85 µg/mL and the solubility at 24 h (simulated gastric fluid, pH 1.2 Hydrochloric Acid Buffer (50 mM), initial pH 1.17, ~20-25° C.) was 22.9 µg/mL. The solubility at 24 h (FaSSIF, initial pH 6.51, ~20-25° C.) was 7.14 µg/mL, the solubility at 24 h (FeSSIF, initial pH 5.00, ~20-25° C.) was 50.7 µg/mL and the solubility at 24 h (Purified water, initial pH 7.02, ~20-25° C., target 2 mg/mL) was 0.4 µg/mL. The “pH value of supernatant” value (FaSSIF, initial pH 6.51) was 6.09, the “pH value of supernatant” value (FeSSIF, initial pH 5.00) was 4.94 and the “pH value of supernatant” value (Purified water, initial pH 7.02) was 2.62. The “pH value of supernatant” value (SGF, initial pH 1.80) was 1.67, the “solubility compared with Free Base Polymorphic Form A” value (in SGF, FaSSIF and FeSSIF) was “higher solubility” and the “pH value of supernatant” value (pH 1.2 Hydrochloric Acid Buffer (50 mM), initial pH 1.17) was 0.99. For the same compound, the “pH value of supernatant” value (pH 3.0 citrate buffer (100 mM), initial pH 3.05) was 2.96, the “pH value of supernatant” value (pH 4.5 citrate buffer (100 mM), initial pH 4.44) was 4.41 and the “Measured Conc. (solubility)” value (pH 4.5 citrate buffer (100 mM), initial pH 4.44, LOQ: 0.1 μg/mL) was “<LOQ”. For the same compound, the “pH value of supernatant” value (pH 7.4 PBS (50 mM), initial pH 7.40) was 7.09, the “Measured Conc. (solubility)” value (pH 7.4 PBS (50 mM), initial pH 7.40, LOQ: 0.1 μg/mL) was “<LOQ” and the “pH value of supernatant” value (pH 9.0 USP Buffer (50 mM), initial pH 8.94) was 8.46. For the same compound, the “Measured Conc. (solubility)” value (pH 9.0 USP Buffer (50 mM), initial pH 8.94, LOQ: 0.1 μg/mL) was “<LOQ”.
